Test results: patent US11781955B2, “Photo-controlled removal of targets in vitro and in vivo” (The United States of America, as represented by the …, priority 2014, dated 2023)
Read-outs that look alike come from different tables or passages of the source.

What was measured:
[1] = cited from earlier work
Balb/3T3-RFP cells [2] = test: Flow cytometry binding to Balb/3T3-RFP cells; details: non-EGFR expressing cells
Description: (§1) Fluorescence arising from the cells after incubation with APC agents was measured using a flow cytometer (FACS Calibur, BD BioSciences, San Jose, CA, USA) and CellQuest software (BD BioSciences). Cells (1×10^5) were incubated with each APC for 6 hr at 37° C.

Balb/3T3-RFP cells [3] = test: PIT on 3D spheroids, non-target cells; type: cell-based
Description: (§2) Spheroids were generated by the hanging drop method in which five thousand cells were suspended in 50 μL medium and then were dispensed into 96 well plates (3D Biomatrix Inc, Ann Arbor, MI, USA) following manufacturer's instructions (Sato et al., Mol. Oncol. 8, 620-632, 2014). Mixed spheroids were made with 5,000 cells of Balb/3T3-RFP and 500 cells of A431-luc-GFP (100:10)). After observation or treatment, spheroids were again incubated with the hanging drop plates containing new media. The volume of the spheroids was calculated with the formula: spheroid volume=4/3 π×radius^3
(§3) To detect the antigen specific localization of IR700 conjugates, fluorescence microscopy was performed (IX61 or IX81; Olympus America, Melville, NY, USA). Ten thousand cells were seeded on cover-glass-bottomed dishes and incubated for 24 hr. APC was then added to the culture medium at 10 μg/mL and incubated at 37° C. for 6 hr. The cells were then washed with PBS; Propidium Iodide (PI)(1:2000)(Life Technologies) and Cytox Blue (1:500)(Life Technologies), were used to detect dead cells. These were added to the media 30 min before observation. The cells were then exposed to NIR light and serial images were obtained. The filter was set to detect IR700 fluorescence with a 590-650 nm excitation filter, and a 665-740 nm band pass emission filter.

A431-luc-GFP flank tumor = test: In vivo PIT on flank tumor; set-up: species or system mouse; details: 100 μg, repeated PIT 50 J/cm2 day 1 and 100 J/cm2 day 2
Description: All in vivo procedures were conducted in compliance with the Guide for the Care and Use of Laboratory Animal Resources (1996), US National Research Council, and approved by the local Animal Care and Use Committee. Six- to eight-week-old female homozygote athymic nude mice were purchased from Charles River (NCI-Frederick). During procedures, mice were anesthetized with isoflurane.
Four million A431-luc-GFP cells were injected subcutaneously in both (right and left symmetrically) flanks of the mice, for the monoculture tumor model. […]
Controls included (1) only NIR light exposure at 50 J/cm2 on day 1 and 100 J/cm2 on day 2 to the right tumor; (2) no treatment for the left tumor. […] Mice were monitored daily, and serial image analysis was performed.
In vivo fluorescence images were obtained with a Pearl Imager (LI-COR Bioscience) for detecting IR700 fluorescence, and a Maestro Imager (CRi, Woburn, MA, USA) for GFP/RFP. […] The spectral fluorescence images consist of autofluorescence spectra and the spectra from GFP/RFP (tumor), which were then unmixed, based on the characteristic spectral pattern of GFP, using Maestro software (CRi). Regions of interest (ROIs) were manually drawn either on the flank tumor or over the abdominal region as appropriate to the model and fluorescence intensity was measured. […]

Balb/3T3-RFP cells [4] = test: In vivo PIT on mixed flank tumor, non-target cells; set-up: species or system mouse; details: repeated PIT
Description: (§4) Four million A431-luc-GFP cells were injected subcutaneously in both (right and left symmetrically) flanks of the mice, for the monoculture tumor model. For the mixed tumor model, mixed cells of 4×10^6 A431-luc-GFP cells and 4×10^5 Balb/3T3-RFP cells (100:10) were injected subcutaneously in the both (right and left symmetrically) flanks.
(§5) Controls included (1) only NIR light exposure at 50 J/cm2 on day 1 and 100 J/cm2 on day 2 to the right tumor; (2) no treatment for the left tumor. These therapies were performed only once at day 7 after cell implantation. Mice were monitored daily, and serial image analysis was performed.
(§6) In vivo fluorescence images were obtained with a Pearl Imager (LI-COR Bioscience) for detecting IR700 fluorescence, and a Maestro Imager (CRi, Woburn, MA, USA) for GFP/RFP. […] The spectral fluorescence images consist of autofluorescence spectra and the spectra from GFP/RFP (tumor), which were then unmixed, based on the characteristic spectral pattern of GFP, using Maestro software (CRi). Regions of interest (ROIs) were manually drawn either on the flank tumor or over the abdominal region as appropriate to the model and fluorescence intensity was measured.
(§7) For BLI, D-luciferin (15 mg/mL, 200 μL) was injected intraperitoneally and the mice were analyzed with a Photon Imager for luciferase activity at day 6. […]

[5] = type: physicochemical
Description: The resulting solution was run on a 4-20% polyacrylamide gel, and stained with Comassie blue and visualized with light or fluorescence at 700 nm. Some samples were not exposed to NIR light. […] Some examples contained NaN3 (sodium azide), a reactive oxygen scavenger, or no oxygen (using an argon gas flash for 20 minutes). The resulting solution was run on a […] gel, and stained with Comassie blue and visualized with light or fluorescence at 700 nm. Some samples were not exposed to NIR light. […] Some examples contained excess oxygen (using 100% oxygen gas flash for 20 minutes). The resulting solution was run on a 4-20% SDS-PAGE gel, and stained with Comassie blue and visualized with light or fluorescence at 700 nm. Some samples were not exposed to NIR light.

A431-luc-GFP cells [6] = test: In vivo PIT on mixed flank tumor, target cells; set-up: species or system mouse; details: repeated PIT
Description: as §4, §5, §6, §7

A431-luc-GFP cells [7] = test: PIT on mixed 2D cell culture, target cells; type: cell-based; details: mixed 2D culture, repeated PIT 2 J/cm2
Description: (§8) Two hundred thousand A431-luc-GFP cells were seeded into 24 well plates or twenty million cells were seeded onto a 10 cm dish and incubated for 24 hr. Medium was replaced with fresh culture medium containing 10 μg/mL of tra-IR700 which was incubated for 6 hr at 37° C. After washing with PBS, phenol red free culture medium was added. Then, cells were irradiated with a NIR laser, which emits light at 670 to 710 nm wavelength (L690-66-60; Marubeni America Co., Santa Clara, CA, USA). The actual power density (mW/cm2) was measured with an optical power meter (PM 100, Thorlabs, Newton, NJ, USA).
(§9) The cytotoxic effects of PIT with APC were determined by the luciferase activity and flow cytometric PI staining or GFP. For luciferase activity, 150 μg/mL of D-luciferin-containing media (Gold Biotechnology, St Louis, MO, USA) was administered to PBS-washed cells 1 hr after PIT, and analyzed on a bioluminescence imaging (BLI) system (Photon Imager; Biospace Lab, Paris, France). For the flow cytometric assay, cells were trypsinized 1 hr after treatment and washed with PBS. […]
(§10) Two hundred thousand cells were seeded on cover-glass-bottomed dishes and incubated for 12 hr. […] The GFP/RFP intensity was evaluated with total pixels with the same threshold in the same field of each spheroid20. […] Fluorescence from treated cells was also measured using a flow cytometer (FACS Calibur).

A431-luc-GFP cells [8] = test: Flow cytometry binding to A431-luc-GFP cells with blocking; details: 6 hr incubation at 37° C., blocking study
Description: as §1

[9] = system: A431-luc-GFP 3D spheroids; type: cell-based
Description: as §2, §3
3D reconstructions of the spheroids were obtained with a confocal laser microscope (LSM5 meta, Carl Zeiss, Jena, Germany) after incubation for 30 min with Hoechst 33342 (1:500)(Life Technologies). Sections of spheroids were first fixed with 3.7% formaldehyde in PBS for 10 min at room temperature followed by embedding with OCT (SAKURA, Tokyo, Japan). Then, they were frozen at −80° C., and sliced at 10 μm with a cryotome (LEICA CM3050 S, Leica microsystems, Wetzlar, Germany). Analysis of the images was performed with ImageJ software (http://rsb.info.nih.gov/ij/).

Balb/3T3-RFP cells [10] = test: PIT on mixed 2D cell culture, non-target cells; type: cell-based; details: mixed 2D culture, repeated PIT 2 J/cm2
Description: as §8, §9, §10

A431-luc-GFP cells [11] = test: In vitro PIT on 2D culture (PI staining, luciferase activity, GFP fluorescence); type: cell-based
Description: as §3, §8
as §9, with “France).” for “France). For the flow cytometric assay, cells were trypsinized 1 hr after treatment and washed with PBS.”
as §10

A431-luc-GFP cells [12] = test: PIT on mixed 3D spheroid, target cells; type: cell-based; details: repeated PIT 2 J/cm2
Description: as §2, §3

[13] = variety of solvents, including water; cited from earlier work
[14] = IR700 fluorescence after NIR light exposure; type: physicochemical; details: 0.5 μM in DMF or PBS, laser 2-16 J/cm^2
Description: IR700 (0.5 μM) was suspended in DMF or PBS and exposed to NIR light with a laser (690 nm+/−4) at 2, 4, 8 or 16 J/cm^2. The resulting solution was visualized (in an eppendorf tube) with fluorescence at 700 nm. Some samples were not exposed to NIR light.

[15] = Solubility of silicon phthalocyanines; type: physicochemical; details: prior to exposure to NIR light (FIG. 5)

For `Oc1cccc(-c2c3nc(c(-c4cccc(O)c4)c4ccc([nH]4)c(-c4cccc(O)c4)c4nc(c(-c5cccc(O)c5)c5ccc2[nH]5)CC4)C=C3)c1` [Foscan®, meta-tetrahydroxyphenylchlorin], which extinction coefficient ([1]; at 652 nm) is on record?
Its extinction coefficient is 22000 M⁻¹ cm⁻¹.

Which extinction coefficient ([1]; at 630 nm) does the source give for Photofrin® here?
Its extinction coefficient is 1200 M⁻¹ cm⁻¹.

Which extinction coefficient ([1]; at 654 nm) does the source give for `C=Cc1c(C)c2cc3nc(c(CC(=O)N[C@@H](CC(=O)[O-])C(=O)[O-])c4[nH]c(cc5nc(cc1[nH]2)C(C)=C5CC)c(C)c4C(=O)[O-])[C@@H](CCC(=O)[O-])[C@@H]3C.[Na+].[Na+].[Na+].[Na+]` [NPe6/Laserphyrin®, mono-L-aspartylchlorin e6] here?
Its extinction coefficient is 40000 M⁻¹ cm⁻¹.

Which “binding to cells (FACS)” value (Balb/3T3-RFP cells [2]) does the source give for “Pan-IR700: Panitumumab (Vectibix), anti-human EGFR IgG2 MAb, conjugated to IR700; about 3 IR700 per antibody” here?
The value was “no binding”.

What about the “effect on non-target cells” value (Balb/3T3-RFP cells [3]; mixed 3D spheroid, repeated PIT 2 J/cm2) of the same compound?
Its value is “without damaging non-target cells”.

And the “change of non-target-expressing 3D spheroid with PIT” value (Balb/3T3-RFP cells [3]; spheroid of non-target cells only)?
Its value is “no remarkable change”.

And the “GFP signal and luciferase activity of tumor” value (A431-luc-GFP flank tumor)?
Its value is “disappearance of both GFP signal and luciferase activity”.

What about the “damage to non-target cells in mixed tumors” value (Balb/3T3-RFP cells [4]) of the same compound?
Its value is “minimal damage to non-target cells”.

And the “degradation by NIR in excess oxygen” value [5]?
Its value is “less degradation”.

What about the “oxygen dependence of cleavage by NIR” value ([5]; 8 or 16 J/cm^2, no treatment, NaN3 or no oxygen (argon)) of the same compound?
The value was “oxygen independent”.

And the “cleavage of conjugate after NIR light” value ([5]; PBS, LED or laser 690 nm, 2-16 J/cm^2)?
Its value is “broken down or cleaved after exposure to NIR light”.

And the “target cell elimination from mixed tumors” value (A431-luc-GFP cells [6])?
Its value is “complete elimination of target-expressing cells from mixed tumors in vivo”.

What about the target cell elimination (A431-luc-GFP cells [7]) of the same compound?
Its target cell elimination is “complete target cell elimination”.

What about the “binding to cells (FACS)” value (A431-luc-GFP cells [8]) of the same compound?
The value was “Specific binding”.

What about the “permeation into spheroids (IR700 fluorescence)” value [9] of the same compound?
Its value is “gradually permeated into spheroids from the perimeter”.

And the “eradication of cells in 3D spheroid” value ([9]; daily repeated PIT)?
The value was “complete eradication of A431-luc-GFP cells within spheroids”.

What about the “cell death in 3D spheroid after PIT” value ([9]; single PIT, 2 J/cm2) of the same compound?
Its value is “necrotic cell death in the APC-bound layer of A431-luc-GFP cells”.

What about the “spheroid size after PIT” value ([9]; target 3D spheroid) of the same compound?
The value was “clearly decreased in size”.

What about the “effect on non-target cells” value (Balb/3T3-RFP cells [10]) of the same compound?
Its value is “without affecting the non-target cell growth”.

And the “bioluminescence (BLI) and GFP fluorescence intensity after PIT” value (A431-luc-GFP cells [11]; 2D culture, 1 hr after PIT)?
Its value is “decrease in bioluminescence (BLI) and GFP fluorescence intensity also in a light-dose dependent manner”.

What about the “cell killing (dead PI staining)” value (A431-luc-GFP cells [11]; 2D culture, NIR light dose series) of the same compound?
Its value is “killed in a light-dose dependent manner”.

And the “cell death by microscopy” value (A431-luc-GFP cells [11]; 6 hr incubation, NIR 2 J/cm2, 1 hr after PIT)?
The value was “Necrotic cell death was observed”.

What about the target cell elimination (A431-luc-GFP cells [12]) of the same compound?
The target cell elimination was “complete target cell elimination from the mixed 3D cell culture”.

Which solubility [13] does the source give for `O[Si]1(O)n2c3c4ccccc4c2N=C2N=C(N=c4c5ccccc5c(n41)=NC1=NC(=N3)c3ccccc31)c1ccccc12` [silicon phthalocyanine dihydroxide] here?
Its solubility is “no measurable solubility”.

With IRDye® 700DX [IR700] as the compound, how does the extinction coefficient ([1]; at the absorption maximum of 689 nm) read?
The extinction coefficient was 210000 M⁻¹ cm⁻¹.

And the “fluorescence after NIR exposure (photobleaching)” value [14]?
Its value is “still fluorescent even after exposure to strong NIR light”.

What about the solubility [15] of the same compound?
Its solubility is “can dissolve in different aqueous and organic solvents”.
